Results: ChEMBL document CHEMBL1201862, “PubChem BioAssay data set” (2004)
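Exposure lasted 48 hours, with cells grown in 96-well plates and compounds tested at five concentrations. Abbreviation: GI50, concentration required for 50% inhibition of growth.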 Calls of active or inactive are those of the source. No stated cut-off is given here; in the data, active = GI50 up to about 1.1 µM and inactive = higher.

How the values were obtained:
Experiment in all cases: inhibition of tumour cell growth, NCI panel, 48 h
HT-29 = system: HT-29
CAKI-1 = system: CAKI-1
SN12C = system: SN12C
TK-10 = system: TK-10
NCI-H226 = system: NCI-H226
IGROV-1 = system: IGROV-1
K562 = system: K562
OVCAR-3 = system: OVCAR-3
HOP-92 = system: HOP-92
NCI-H522 = system: NCI-H522
NCI-H460 = system: NCI-H460
UO-31 = system: UO-31
NCI-H23 = system: NCI-H23
UACC-62 = system: UACC-62
SF-295 = system: SF-295
SF-539 = system: SF-539

| SMILES | GI50 (HT-29) | GI50 (CAKI-1) | GI50 (SN12C) | GI50 (TK-10) | GI50 (NCI-H226) | GI50 (IGROV-1) | GI50 (K562) | GI50 (OVCAR-3) | GI50 (HOP-92) | GI50 (NCI-H522) | GI50 (NCI-H460) | GI50 (UO-31) | GI50 (NCI-H23) | GI50 (UACC-62) | GI50 (SF-295) | GI50 (SF-539) |
| --- | --- | --- | --- | --- | --- | --- | --- | --- | --- | --- | --- | --- | --- | --- | --- | --- |
| COc1c(Cl)c2c(c(OC)c1OC)-c1ccc(OC)c(=O)c(Cl)c1C(NC(C)=O)CC2 (configuration not stated) | 0.156 µM (active) | 0.608 µM (active) | 0.444 µM (active) | 0.69 µM (active) | 0.316 µM (active) | 0.466 µM (active) | 0.139 µM (active) | 0.117 µM (active) | 0.117 µM (active) | 0.148 µM (active) | 0.134 µM (active) | 3.63 µM (inactive) | 0.269 µM (active) | 0.108 µM (active) | 0.14 µM (active) | 0.148 µM (active) |
| COc1cc(C2c3cc4c(cc3[C@@H](OCCN(C)C)C3COC(=O)[C@H]23)OCO4)cc(OC)c1O (some centres not stated) | 0.902 µM (active) | 0.14 µM (active) | 0.151 µM (active) | 1.58 µM (inactive) | 0.0394 µM (active) | 1.52 µM (inactive) | 0.562 µM (active) | 1.76 µM (inactive) | 0.196 µM (active) | 0.111 µM (active) | 0.0127 µM (active) | 0.519 µM (active) | 0.237 µM (active) | 0.243 µM (active) | 0.145 µM (active) | 0.164 µM (active) |
| CC(C)(C)c1cc(COc2c3sc(=S)sc3c(OCc3cc(C(C)(C)C)cc(C(C)(C)C)c3)c3sc(=S)sc23)cc(C(C)(C)C)c1 | > 100 µM (inactive) | > 100 µM (inactive) | > 100 µM (inactive) | > 100 µM (inactive) |  | > 100 µM (inactive) | > 100 µM (inactive) | > 100 µM (inactive) |  |  | > 100 µM (inactive) |  | > 100 µM (inactive) | > 100 µM (inactive) | > 100 µM (inactive) | > 100 µM (inactive) |
| Cn1c(=O)nc2n(-c3cc(C(F)(F)F)cc(C(F)(F)F)c3)c3ccccc3nc-2c1=O | > 100 µM (inactive) | > 100 µM (inactive) | > 100 µM (inactive) | > 100 µM (inactive) | > 100 µM (inactive) | > 100 µM (inactive) | > 100 µM (inactive) | 64.7 µM (inactive) | 45.1 µM (inactive) |  | > 100 µM (inactive) | > 100 µM (inactive) | > 100 µM (inactive) |  | 52.1 µM (inactive) | > 100 µM (inactive) |
| O=C(Nc1ccccc1-c1nn(CO)c(=S)n(CO)c1=O)C(F)(F)F | > 100 µM (inactive) | > 100 µM (inactive) | > 100 µM (inactive) | > 100 µM (inactive) | > 100 µM (inactive) | > 100 µM (inactive) | > 100 µM (inactive) | > 100 µM (inactive) | > 100 µM (inactive) | > 100 µM (inactive) | > 100 µM (inactive) | > 100 µM (inactive) | > 100 µM (inactive) | > 100 µM (inactive) | > 100 µM (inactive) | > 100 µM (inactive) |
| O=C1C(O)=C(CN(CCCl)CCCl)C(=O)c2ccccc21 | 42.8 µM (inactive) | 39.7 µM (inactive) | 57.1 µM (inactive) | > 100 µM (inactive) |  | 20.5 µM (inactive) | 45.6 µM (inactive) | 45.1 µM (inactive) | 56.5 µM (inactive) | 66.8 µM (inactive) | 29.2 µM (inactive) | 37.4 µM (inactive) | 68.9 µM (inactive) | 39.6 µM (inactive) | 70.3 µM (inactive) | 34 µM (inactive) |
| CC1CC2(CC[C@@H]1O)OCCO2 (some centres not stated) | > 100 µM (inactive) | > 100 µM (inactive) | > 100 µM (inactive) | > 100 µM (inactive) |  | > 100 µM (inactive) | > 100 µM (inactive) | > 100 µM (inactive) | > 100 µM (inactive) | > 100 µM (inactive) | > 100 µM (inactive) | > 100 µM (inactive) | > 100 µM (inactive) | > 100 µM (inactive) | > 100 µM (inactive) | > 100 µM (inactive) |
| CC(C)N1C(C)[C@@H](c2ccccc2)O[P@@]1(=O)CC1=CCCCC1 (some centres not stated) | > 100 µM (inactive) |  | > 100 µM (inactive) | > 100 µM (inactive) | > 100 µM (inactive) | > 100 µM (inactive) | 48.6 µM (inactive) | 79.3 µM (inactive) | 45.8 µM (inactive) | > 100 µM (inactive) | > 100 µM (inactive) | > 100 µM (inactive) | > 100 µM (inactive) | 47.1 µM (inactive) | 57 µM (inactive) | > 100 µM (inactive) |
| O=C1c2ccccc2NC1(c1ccccc1)c1c(-c2ccccc2)[nH]c2ccccc12 (configuration not stated) | 17.9 µM (inactive) | 8.77 µM (inactive) | 14 µM (inactive) |  |  | 4.41 µM (inactive) | 8.32 µM (inactive) | 21.2 µM (inactive) | 5.35 µM (inactive) |  | 17.5 µM (inactive) | 7.82 µM (inactive) | 21.4 µM (inactive) | 45.3 µM (inactive) | 6.34 µM (inactive) | > 100 µM (inactive) |
| CCCCCCc1cc(C(=O)Nc2cccc(C(F)(F)F)c2)nc(N)n1 | > 100 µM (inactive) | > 100 µM (inactive) | > 100 µM (inactive) | > 100 µM (inactive) | > 100 µM (inactive) | > 100 µM (inactive) | > 100 µM (inactive) | > 100 µM (inactive) | > 100 µM (inactive) |  | > 100 µM (inactive) | > 100 µM (inactive) | > 100 µM (inactive) | > 100 µM (inactive) | > 100 µM (inactive) | > 100 µM (inactive) |
| N#CC1=C(c2ccccc2)C(O)(c2ccccc2)NC1=O (configuration not stated) | 41.1 µM (inactive) | > 100 µM (inactive) | 48.3 µM (inactive) | > 100 µM (inactive) | 51.5 µM (inactive) | > 100 µM (inactive) | > 100 µM (inactive) | > 100 µM (inactive) | 19.5 µM (inactive) |  | 58.3 µM (inactive) | 82.8 µM (inactive) | 42 µM (inactive) | > 100 µM (inactive) | 37.4 µM (inactive) | 27.7 µM (inactive) |
| CCOC(=O)C(=O)Nc1ccc(Cl)c(C(F)(F)F)c1 | > 100 µM (inactive) | > 100 µM (inactive) | > 100 µM (inactive) | > 100 µM (inactive) | > 100 µM (inactive) | > 100 µM (inactive) | > 100 µM (inactive) | > 100 µM (inactive) | < 0.01 µM (active) | > 100 µM (inactive) |  | > 100 µM (inactive) | > 100 µM (inactive) | > 100 µM (inactive) | > 100 µM (inactive) | > 100 µM (inactive) |
| O=C1c2c(nc3ccccc3c2-c2ccccc2)CN1Nc1ccccc1 | > 100 µM (inactive) | > 100 µM (inactive) | > 100 µM (inactive) | > 100 µM (inactive) | > 100 µM (inactive) | > 100 µM (inactive) | > 100 µM (inactive) | > 100 µM (inactive) | > 100 µM (inactive) | > 100 µM (inactive) |  | > 100 µM (inactive) |  | > 100 µM (inactive) |  |  |
| CC(C)=CC(C(O)c1ccccc1)S(=O)(=O)c1nccn1C (configuration not stated) | > 100 µM (inactive) |  | > 100 µM (inactive) | > 100 µM (inactive) | > 100 µM (inactive) | > 100 µM (inactive) | > 100 µM (inactive) | > 100 µM (inactive) | > 100 µM (inactive) | > 100 µM (inactive) | > 100 µM (inactive) | > 100 µM (inactive) | > 100 µM (inactive) | > 100 µM (inactive) | > 100 µM (inactive) | > 100 µM (inactive) |
| CC(C)C(Sc1nc(-c2ccccc2)c(-c2ccccc2)[nH]1)C(=O)N/N=C/c1ccc([N+](=O)[O-])cc1 (configuration not stated) | 6.44 µM (inactive) | 21.1 µM (inactive) | 12.5 µM (inactive) | 30.1 µM (inactive) | 17.9 µM (inactive) | 18.2 µM (inactive) |  | 7.19 µM (inactive) | 10.4 µM (inactive) | 15.3 µM (inactive) | 9.46 µM (inactive) | 11.3 µM (inactive) | 16.7 µM (inactive) | 15.6 µM (inactive) | 15.8 µM (inactive) | 20.5 µM (inactive) |
| Cc1nn(C)cc1P(=S)(c1ccccc1)c1ccccc1 | 50.4 µM (inactive) | 95.3 µM (inactive) | > 100 µM (inactive) | > 100 µM (inactive) |  | > 100 µM (inactive) | 20.6 µM (inactive) | > 100 µM (inactive) | 35.2 µM (inactive) |  | 40.5 µM (inactive) | > 100 µM (inactive) | > 100 µM (inactive) | 47 µM (inactive) | 67.5 µM (inactive) | > 100 µM (inactive) |
| COc1ccc(/C=C2/CCCC/C2=N/O)cc1 | > 100 µM (inactive) |  | 75.7 µM (inactive) | > 100 µM (inactive) |  | 41 µM (inactive) | > 10 µM (inactive) | > 100 µM (inactive) | 46.1 µM (inactive) | 40.5 µM (inactive) | > 100 µM (inactive) | > 100 µM (inactive) | 93.1 µM (inactive) | > 100 µM (inactive) | > 100 µM (inactive) | > 100 µM (inactive) |
| COC(=O)C1=C(c2ccc3c(c2)OCO3)OC(c2ccc3c(c2)OCO3)C1 (configuration not stated) | > 100 µM (inactive) | > 100 µM (inactive) | > 100 µM (inactive) | > 100 µM (inactive) | > 100 µM (inactive) | > 100 µM (inactive) | > 100 µM (inactive) | > 100 µM (inactive) | > 100 µM (inactive) |  | > 100 µM (inactive) | 38.2 µM (inactive) | > 100 µM (inactive) | > 100 µM (inactive) | 71.9 µM (inactive) | > 100 µM (inactive) |
